# Data published in patent publication US6448256B1, “Antibiotic prodrugs” (University of Massachusetts, priority 1999, dated 2002).
# Where “and” joins values, the source holds several entries; their conditions need not be identical. Equal values may be shown once. Read-outs that look alike come from different tables or passages of the source.
# Experiments:
# B. subtilis DNA pol III = B. subtilis DNA pol III (Bacillus subtilis, UniProt P13267); assay: Inhibition of B. subtilis DNA pol III (Ki); format: biochemical
# B. subtilis DNA pol III, sequence (P13267 whole entry): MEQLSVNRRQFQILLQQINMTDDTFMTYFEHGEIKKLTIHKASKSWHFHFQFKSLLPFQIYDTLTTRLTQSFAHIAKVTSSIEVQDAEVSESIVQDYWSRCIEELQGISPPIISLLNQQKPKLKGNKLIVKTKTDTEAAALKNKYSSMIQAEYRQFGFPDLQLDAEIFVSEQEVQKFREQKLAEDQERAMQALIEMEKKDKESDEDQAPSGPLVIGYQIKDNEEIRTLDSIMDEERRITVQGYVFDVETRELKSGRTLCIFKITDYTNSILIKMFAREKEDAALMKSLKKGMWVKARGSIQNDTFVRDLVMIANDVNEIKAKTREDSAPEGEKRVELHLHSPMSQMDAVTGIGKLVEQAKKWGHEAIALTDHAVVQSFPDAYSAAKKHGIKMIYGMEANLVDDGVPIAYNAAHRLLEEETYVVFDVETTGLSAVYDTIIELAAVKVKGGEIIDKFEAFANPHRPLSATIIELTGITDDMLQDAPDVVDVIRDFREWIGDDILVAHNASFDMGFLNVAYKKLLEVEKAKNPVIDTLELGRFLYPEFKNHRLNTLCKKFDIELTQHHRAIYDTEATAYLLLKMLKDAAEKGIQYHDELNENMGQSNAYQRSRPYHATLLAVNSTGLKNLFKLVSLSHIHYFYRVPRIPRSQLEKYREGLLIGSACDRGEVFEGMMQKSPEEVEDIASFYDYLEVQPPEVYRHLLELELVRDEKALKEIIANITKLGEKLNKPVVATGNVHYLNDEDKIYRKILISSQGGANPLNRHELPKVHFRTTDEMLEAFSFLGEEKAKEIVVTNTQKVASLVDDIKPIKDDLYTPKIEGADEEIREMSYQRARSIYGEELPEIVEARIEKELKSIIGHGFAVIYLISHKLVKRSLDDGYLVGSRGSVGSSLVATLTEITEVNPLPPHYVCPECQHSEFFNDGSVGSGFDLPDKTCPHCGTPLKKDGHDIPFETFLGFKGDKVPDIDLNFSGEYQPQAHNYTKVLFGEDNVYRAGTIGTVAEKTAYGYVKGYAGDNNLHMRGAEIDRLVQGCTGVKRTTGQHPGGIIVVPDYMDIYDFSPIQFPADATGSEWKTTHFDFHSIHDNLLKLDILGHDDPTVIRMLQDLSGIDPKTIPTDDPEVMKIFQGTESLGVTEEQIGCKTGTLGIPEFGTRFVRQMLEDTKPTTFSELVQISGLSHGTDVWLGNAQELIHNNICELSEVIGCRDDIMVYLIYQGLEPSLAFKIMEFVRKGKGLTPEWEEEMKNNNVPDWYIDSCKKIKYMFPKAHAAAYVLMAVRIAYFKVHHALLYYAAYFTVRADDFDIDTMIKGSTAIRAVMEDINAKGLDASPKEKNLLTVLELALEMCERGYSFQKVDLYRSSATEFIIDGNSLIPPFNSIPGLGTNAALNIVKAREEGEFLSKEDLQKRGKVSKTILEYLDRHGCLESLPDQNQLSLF
# Description: (§1) To further investigate the antibacterial and/or DNA pol III inhibitory activity of various drug compounds, various ester-containing moieties N-linked to the EMAU core were produced as described in Example 1. These prodrugs were assayed for inhibition of B. subtilis DNA pol III and antibiotic activity against a number of bacteria.
# The competitive inhibitor constants (Ki) of selected EMAU compounds were determined with three different pol Ills: the pol III enzyme from Bacillus subtilis (BS pol III), and the pol III enzymes of the clinically relevant pathogens, Enterococcus fecalis (EF pol III) and Staphylococcus aureus (SA pol 111).
# B. subtilis = assay: MIC against B. subtilis; format: cell-based; conditions: Bacillus subtilis, Table 6; read-out: MIC B. subtilis
# Description: as §1
# (§2) The minimal inhibitory concentrations (MICs) of the four N3-substituted agents and EMAU were determined for B. subtilis (BS), methicillin-sensitive and resistant S. aureus (SA & MRSA), vancomycin-sensitive and resistant E. fecalis (EF& VREF), vancomycin-resistant E. fecium (VREF*), and E. coli (EC) as a Gram-negative control.
# S. aureus [1] = assay: MIC against S. aureus (methicillin-sensitive); format: cell-based; conditions: Staphylococcus aureus, read-out: MIC S. aureas
# Description: as §1, §2
# E. fecalis = assay: MIC against E. fecalis; format: cell-based; conditions: Table 6; read-out: MIC E. fecalis
# Description: as §1, §2
# Solubility in water = format: physicochemical; conditions: 25° C.
# Source text: The prodrug 3-(L-valylbutyl)-EMAU (Val-B-EMAU, 4a) was synthesized as a hydrochloride. The structure was confirmed by NMR. The compound had high solubility in water. […] Two different synthesis methods were used.
# [2] = Prodrug conversion in mouse plasma in vitro (HPLC); format: in vitro ADME; conditions: mouse
# Description: The conversion rate of prodrugs can be measured by first establishing a reverse phase HPLC method for the detection of both prodrug and drug in a biological sample such as plasma or serum. A stock solution of prodrug, usually in saline, is diluted 1:5 in animal plasma or saline. […] If necessary, the sample can be thawed in a 37° C. water bath. Aliquots of the diluted sample are taken at 15, 30, 45, 60, 90, 120, and 180 minutes. Longer time points are usually needed for saline solutions because the rates of spontaneous hydrolysis are much longer than for enzyme-catalyzed hydrolysis. The aliquots are analyzed at a 1:10 dilution using HPLC, and the fraction of prodrug which has been converted at each time point calculated.
# The rate of formation of the drug and the rate of decay of the prodrug had doubling and half-life times, respectively, of about 30 minutes. In contrast, the estimated half-life of Val-B-EMAU in physiological saline at 37° C. was greater then 5000 hours. The mechanism for the decomposition of Val-B-EMAU by plasma is presumed to involve esterases in the circulation.
# To further define the conversion rate of Val-B-EMAU (4a), the prodrug was incubated in 80% mouse plasma.
# [3] = Plasma pharmacokinetics after intravenous administration to mice; format: in vivo; conditions: for half-life: mouse, plasma, iv, 25 mg/kg
# Description: (d) Elimination halfife and apparent volume of distribution. An appropriate dose of each agent (the maximum permitted by the results of the above dose/toxicity studies) is injected via the tail vein to a series of mice (e.g., 12). At specific times following injection (e.g., 10, 20, 30, 45, 90, and 150 minutes), mice (e.g., a pair) are restrained in DecapiCones and decapitated, and their blood collected individually by exsanguination into a sterile test tube.
# The blood samples are centrifuged to yield clear plasma (yield: 0.4-0.6 ml per mouse). Approximately 0.2 ml of the plasma sample are used for HPLC analysis, using conditions established herein for quantitation of the compound. The individual plasma levels for each time point are averaged, and the data are analyzed to estimate Vd and half-life by established methods (Gibaldi, M. and D. Perrier. Pharmacokinetics. Marcel Dekker, Inc., New York, 1975).
# Solutions of Val-B-EMAU in saline were next injected into the tail veins of mice at a dose of 25 mg/kg body weight. Animals were sacrificed at various times after dosing, and plasma was isolated and subjected to HPLC analysis.
# Each value plotted in FIG. 3 represents the average of four measurements, each in a different animal.
# [4] = Plasma pharmacokinetics after oral administration to mice; format: in vivo
# Description: (e) Uptake from subcutaneous (sc), intraperitoneal (ip), and oral (Po) routes, Oral dosing can be performed by gavage with a small stomach tube to DecapiCone-restrained animals. […] At specific times following administration (e.g., 15, 30, 60, 90, 150 and 240 minutes), two mice are sacrificed and their plasma samples prepared and analyzed by HPLC as described above in (d). Following decapitation, the site of drug application in each animal's carcass is dissected and inspected visually for evidence of precipitation.
# Each value plotted in FIG. 4 is an average of two measurement, each in a different animal.
# [5] = test system: S. aureus (methicillin-sensitive Smith strain); assay: ip/ip mouse protection against lethal S. aureus infection; format: in vivo, mice; design: mice protected from death: dose or concentration left out as unconfirmed; conditions: for animals protected from death: 10 mg/kg, ten animals
# Description: Step 1: Screening—Each candidate prodrug is screened for activity in an ip/ip S. aureus protection model. Candidates that display efficacy equivalent to that of HB-EMAU and HB-IMAU are selected for advanced pharmacokinetic analysis and application in the more relevant mouse thigh model of infection.
# The efficacy of the propyl derivatives was tested against murine staphylococcal infection in vivo. A simple “ip/ip” system was used, in which 20 gram mice (10 each) were injected ip (intraperitoneally) with a lethal dose (2.3×10^7 CFU) of the methicillin-sensitive Smith strain of S. aureus. The mice were then immediately injected ip with the antibiotic agent as a 1:9 mixture of DMSO:peanut oil. Vancomycin was used as the positive control drug.
# Both hydroxybutyl compounds were tested at 10 mg/kg in the mouse protection experiment against lethal S. aureus infection described in Example 4 above.
# S. aureus [6] = assay: Bactericidal activity (killing) against S. aureus; format: cell-based; conditions: 2, 4, and 8× MIC, killing continued for 24 hours
# S. aureus [7] = assay: Mouse thigh infection model; format: in vivo, mice; conditions: ip in saline, 40 mg/kg every four hours
# Source text: The mouse thigh infection model has been pioneered and used by Craig and colleagues (Craig, W. A., Redington, J. and S. C. Ebert (1991) J. Antimicr. Chemother. 27:Suppl C, 29-40; Leggett, J. E., Ebert, S., Fantin, B. and W. A. Craig (1991) Scand. J. Inf. Dis. 74:179-184). It represents a rational, flexible, cost-effective, and reproducible experimental approach for predicting the efficacy of a bacterial infection in a human patient. It is particularly useful in the present invention, because it is adaptable to the use of clinically relevant strains of Staphylococcus and Enterococcus.
# Mice are made neutropenic to render them susceptible to infection with a wide variety of bacteria. […] The infected thigh of each animal is homogenized in sterile saline, and the bacterial concentration in the homogenate is determined by dilution and plating. […]
# Testing can be carried out as follows. […] Treatment with the test agent and the positive control agent (vancomycin) is initiated at 2 hours post-infection, using a route (Po, ip, or sc), schedule, and dosing regimen determined by the agent's in vitro potency and specific pharmacokinetic properties.
# The compounds are given by ip injection of 0.05 ml of a saline solution. […] Results are expressed as the log reduction in bacterial growth as a fraction of that in vehicle-treated animals.
# [8] = Table 6, read-out: Ki, inhibition constant vs. B. subtilis DNA pol III
SMILES,"Ki (B. subtilis DNA pol III; Table 1, read-out: Ki B. subtilis pol III)",Ki (B. subtilis DNA pol III; [8]),MIC (B. subtilis),MIC (S. aureus [1]),MIC (E. fecalis),solubility (Solubility in water),doubling time of formation of the drug [2],time at which HB-EMAU concentration peaked ([3]; after iv Val-B-EMAU 25 mg/kg (FIG. 1)),"half-life ([3]; after iv Val-B-EMAU 25 mg/kg (FIG. 1), read-out: half life of HB-EMAU)","half-life ([3]; after iv Val-B-EMAU (4a) 25 mg/Kg (FIG. 3), average of four measurements, read-out: elimination half-life of HB-EMAU)","area under the curve for HB-EMAU, estimated ([4]; HB-EMAU administered directly)","peak concentration of HB-EMAU ([4]; mice, after oral VB-EMAU 100 mg/Kg)","plasma HB-EMAU at four hours after administration ([4]; mice, after oral Val-B-EMAU (4a) 100 mg/Kg)","time at which plasma level of HB-EMAU peaked ([4]; mice, after oral Val-B-EMAU (4a) 100 mg/Kg in physiological saline (FIG. 4))",animals protected from death ([5]; four day experiment),bactericidal for S. aureus (S. aureus [6]),"protection of mice ([5]; 20 mg/kg, positive control)","mice protected from death ([5]; control drug, four day experiment)",log reduction in S. aureus proliferation compared with control thighs (S. aureus [7])
CCc1cc(Nc2cc(=O)n(CCCCO)c(=O)[nH]2)ccc1C [HB-EMAU],190 nM,180 nM,< 3.1 µg/mL,6 µg/mL,6 µg/mL,~30 µg/mL,about 30 minutes,about 20 minutes,~43 min,15.6 min,0.1%,11.2 μM and 3.5 μg/ml,no detectable,60 min,all ten animals,bactericidal,,,
"CN[C@H](CC(C)C)C(=O)N[C@H]1C(=O)N[C@@H](CC(N)=O)C(=O)N[C@H]2C(=O)N[C@H]3C(=O)N[C@H](C(=O)N[C@H](C(=O)O)c4cc(O)cc(O)c4-c4cc3ccc4O)[C@H](O)c3ccc(c(Cl)c3)Oc3cc2cc(c3O[C@@H]2O[C@H](CO)[C@@H](O)[C@H](O)[C@H]2O[C@H]2C[C@](C)(N)[C@H](O)[C@H](C)O2)Oc2ccc(cc2Cl)[C@H]1O [vancomycin, reference compound]",,,,,,,,,,,,,,,,,protected all mice,all ten mice,2-4 log
Cc1ccc(Nc2cc(=O)n(CCCCO)c(=O)[nH]2)cc1I [HB-IMAU],,220 nM,< 3.1 µg/mL,6 µg/mL,6 µg/mL,,,,,,,,,,nine of ten animals,bactericidal,,,
